Source: patent US20230285261A1, “FRAGRANCE COMPOSITION COMPRISING A FRAGRANCE COMPONET AND A NON-ODOROUS FRAGRANCE MODULATOR” (Coty Inc., priority 2020, published 2023)

From the text: Classical perfume contain a high % of ethanol to solubilize perfume raw materials.

- Max Solubility in 83% Ethanol/17% Glucam solution: 0.431 g
- Max Solubility in 88% Ethanol/12% Water solution: 0.273 g
- solubility increase, glucam-containing vs classical ethanol solution: 57.8%
Structure (SMILES): C[C@@H]1CC[C@H]2C(C)(C)[C@H]3C[C@@]12CC[C@@]3(C)O [Cerdol Crystals, Cedrol Crystals]
